Measured values as given in US8796259B2, “N3-heteroaryl substituted triazoles and N5-heteroaryl substituted triazoles useful as axl inhibitors” (Rigel Pharmaceuticals, Inc., priority 2006, dated 2014).

These compounds were tested against T1, Axl (Homo sapiens, UniProt P30530) (assay: Phospho-Akt in-cell Western assay (inhibition of Axl activity, Axl-antibody cross-linking stimulation)). Conditions: Hela cells, phospho-Akt readout; compounds of formula (Ia), Table 1.
T1 construct: endogenous in cells; host or cells: HeLa cells
T1 sequence (P30530 26-894): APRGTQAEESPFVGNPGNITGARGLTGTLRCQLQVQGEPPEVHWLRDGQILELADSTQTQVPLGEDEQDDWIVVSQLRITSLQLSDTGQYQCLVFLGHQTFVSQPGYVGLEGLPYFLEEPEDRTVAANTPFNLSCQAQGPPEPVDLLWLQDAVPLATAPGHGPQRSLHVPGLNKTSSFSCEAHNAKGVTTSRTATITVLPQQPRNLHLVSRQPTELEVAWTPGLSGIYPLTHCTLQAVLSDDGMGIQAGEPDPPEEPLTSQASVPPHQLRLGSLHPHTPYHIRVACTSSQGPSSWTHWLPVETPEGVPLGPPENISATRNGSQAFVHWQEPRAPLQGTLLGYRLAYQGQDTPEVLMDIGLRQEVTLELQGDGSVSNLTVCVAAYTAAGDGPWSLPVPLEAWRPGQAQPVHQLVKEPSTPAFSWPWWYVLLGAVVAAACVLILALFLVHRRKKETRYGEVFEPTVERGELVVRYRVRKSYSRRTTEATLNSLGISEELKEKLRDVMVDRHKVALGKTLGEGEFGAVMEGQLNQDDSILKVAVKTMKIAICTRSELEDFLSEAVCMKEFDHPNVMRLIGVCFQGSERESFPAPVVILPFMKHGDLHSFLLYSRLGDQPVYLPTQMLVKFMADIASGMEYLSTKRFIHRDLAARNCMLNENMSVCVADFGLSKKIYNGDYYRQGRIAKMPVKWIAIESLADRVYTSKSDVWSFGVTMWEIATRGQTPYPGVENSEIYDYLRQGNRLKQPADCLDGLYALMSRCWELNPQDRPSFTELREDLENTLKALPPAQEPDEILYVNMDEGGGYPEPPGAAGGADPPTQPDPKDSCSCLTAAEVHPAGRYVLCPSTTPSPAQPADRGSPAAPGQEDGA
Assay type: cell-based
Experimental: The compounds of the invention were tested in the following assay for their ability to inhibit Axl activity.
Phospho-Akt in-Cell Western Assay
• Cell culture plate: 96 well assay plate (Corning 3610), white, clear bottom, tissue-culture treated. • Cells: Hela cells. • Starvation medium: For Axl stimulation: 0.5% FCS (fetal calf serum) in DMEM, plus Axl/Fc (extracellular domain of AXL fused to immunoglobulin Fc region) (R&D, 154-AL) 500 ng/mL. • For EGF (epidermal growth factor) stimulation: 0.5% FCS in DMEM (Dulbecco's modified Eagles medium). • Poly-L-Lysine 0.01% solution (the working solution): 10 μg/ml, dilute In PBS (phosphate buffered saline). • Axl antibody cross-linking: • 1st: Mouse anti-Axl (R&D, MAB154). • 2nd: Biotin-SP-conjugated AffiniPure goat anti-mouse IgG (H+L) (Jackson ImmunoResearch #115-065-003). • Fixing buffer: 4% formaldehyde in PBS. • Wash buffer: 0.1% TritonX-100 in PBS. • Quenching buffer: 3% H2O2, 0.1% Azide in wash buffer, Azide and hydrogen peroxide (H2O2) are added fresh. • Blocking buffer: 5% BSA in TBST (tris buffered saline plus 0.1% Tween 20). • Primary antibody: Rabbit anti-human Phospho-Akt antibody (Cell Signaling 9271): 1×250 diluted in blocking buffer. • Secondary antibody: HRP (horse radish peroxidase)-conjugated Goat anti-Rabbit secondary, stock solution: Jackson ImmunoResearch (Goat anti-Rabbit HRP, #111-035-144) 1:1 diluted in glycerol, store at −20° C. The working solution: 1×2000 dilution of stock in blocking buffer. • Chemiluminescent working solution (Pierce, 37030): SuperSignal ELISA (enzyme linked immunosorbant assay) Pico Chemiluminescent substrate. • Crystal Violet solution: Stock: 2.5% Crystal violet in methanol, filtered and kept at ambient temperature. The working solution: dilute the stock 1:20 with PBS immediately before use.
10% SDS: working solution: 5% SDS (sodium dodecylsulfate), diluted in PBS
A 96 well TC (tissue culture treated) plate was coated with 10 μg/mL poly-L-Lysine at 37° C. for 30 min, washed twice with PBS, and air-dried for 5 minutes before cells were added. Hela cells were seeded at 10,000 cells/well and the cells were starved in 100 μL starvation medium containing Axl/Fc for 24 hrs.
The cells were pre-treated with test compounds by adding 100 μL of 2× test compound to the starvation medium on the cells. The cells were incubated at 37° C. for 1 hr before stimulation.
The cells were stimulated by Axl-antibody cross-linking as follows: A 5×1st/2nd Axl antibody mixture was made (37.5 μg/mL 1st/100 μg/mL 2 nd) in starvation medium and nutated at 4° C. with thorough mixing for 1-2 hours for clustering. The resulting mix was warmed to 37° C. 50 μL of 5×Axl 1st/2nd of antibody cluster was added to the cells and the cells were incubated at 37° C. for 5 min.
After 5 minutes stimulation, the plate was flicked to remove medium and the plate was tapped onto paper towels. Formaldehyde (4.0% in PBS, 100 μL) was added to fix the cells and the cells were incubated at ambient temperature for 20 min without shaking.
The cells were washed with a plate washer buffer to remove the formaldehyde solution. The plate was flicked to removed excess wash buffer and tapped onto paper towels. Quenching buffer (100 μL) was added to each well and the cells were incubated at ambient temperature for 20 minutes without shaking.
The cells were washed with a plate washer buffer to remove the quenching buffer. Blocking buffer (100 μL) was added and the cells were incubated at ambient temperature for at least an hour with gentle shaking.
The cells were washed with a plate washer buffer and diluted primary antibody (50 μL) was added to each well (blocking buffer was added to the negative control wells instead). The plates were incubated overnight at 4° C. with gentle shaking.
The wash buffer was removed, diluted secondary antibody (100 μL) was added, and the cells were incubated at ambient temperature for 1 hour with gentle shaking. […]
In the case of Cc1csc2c(-n3nc(Nc4ccc(N5CCC(N6CCN(C)CC6)CC5)nc4)nc3N)nc(Cl)nc12 [compound 22], the IC50 is reported as under 1000 nM.
Work on COc1cc2ncnc(-n3nc(Nc4ccc(N5CCC(N6CCCC6)CC5)nc4)nc3N)c2cc1OC [compound 23, 1-(6,7-dimethoxy-quinazoline-4-yl)-N^3-(6-(4-pyrrolidin-1-ylpiperidin-1-yl)pyridine-3-yl)-1H-1,2,4-triazole-3,5-diamine] yielded an IC50 of under 1000 nM.
For Cc1csc2c(-n3nc(Nc4ccc(N5CCN(C6CC7CCC6C7)CC5)nc4)nc3N)nc(Cl)nc12 (centres unmarked) [compound 24, 1-(2-chloro-7-methylthieno [3,2-d]pyrimidine-4-yl)-N^3-(6-(4-(bicyclo[2.2.1]heptan-2-yl)piperazin-1-yl)pyridin-3-yl)-1H-1,2,4-triazole-3,5-diamine], the IC50 was under 1000 nM.
Work on Cc1csc2c(-n3nc(Nc4cnc5c(c4)CNCC5)nc3N)nc(Cl)nc12 [compound 25, 1-(2-chloro-7-methylthieno [3,2-d]pyrimidine-4-yl)-N^3-(5,6,7,8-tetrahydro-1,6-naphthyridin-3-yl)-1H-1,2,4-triazole-3,5-diamine] yielded an IC50 of under 1000 nM.
For COc1cc2ncnc(-n3nc(Nc4ccc(N5CCC(N6CCCCC6)CC5)nc4)nc3N)c2cc1OC [compound 27, 1-(6,7-dimethoxy-quinazoline-4-yl)-N^3-(6-(4-piperidin-1-ylpiperidin-1-yl)pyridine-3-yl)-1H-1,2,4-triazole-3,5-diamine], the IC50 was under 1000 nM.
Cc1csc2c(-n3nc(Nc4ccc(N5CCC(N6CCCCC6)CC5)nc4)nc3N)nc(Cl)nc12 [compound 28, 1-(2-chloro-7-methylthieno [3,2-d]pyrimidine-4-yl)-N^3-(6-(4-piperidin-1-ylpiperidin-1-yl)pyridine-3-yl)-1H-1,2,4-triazole-3,5-diamine] gave an IC50 of under 1000 nM.
In the case of Cc1csc2c(-n3nc(Nc4cnc5c(c4)CC(NC(=O)CN(C)C)CC5)nc3N)nc(Cl)nc12 (centres unmarked) [compound 29, 1-(2-chloro-7-methylthieno [3,2-d]pyrimidin-4-yl)-N^3-(6-(2-(dimethyl-amino)-1-oxyethyl-amino)-5,6,7,8-tetrahydro-quinolin-3-yl)-1H-1,2,4-triazole-3,5-diamine], the IC50 is reported as under 1000 nM.
For Cc1csc2c(-n3nc(Nc4cnc5c(c4)CC(N)CC5)nc3N)nc(Cl)nc12 (centres unmarked) [compound 30, 1-(2-chloro-7-methylthieno [3,2-d]pyrimidin-4-yl)-N^3-(6-amino-5,6,7,8-tetrahydro-quinolin-3-yl)-1H-1,2,4-triazole-3,5-diamine], the IC50 was under 1000 nM.
Work on CN1CCN(c2ccc(Nc3nc(N)n(-c4nccc5ccccc45)n3)cn2)CC1 [compound 31, 1-(isoquinolin-1-yl)-N^3-(6-(4-methyl-piperazin-1-yl)pyridin-3-yl)-1H-1,2,4-triazole-3,5-diamine] yielded an IC50 of under 1000 nM.
Cc1csc2c(-n3nc(Nc4cnc5[nH]ccc5c4)nc3N)nc(Cl)nc12 [compound 32, 1-(2-chloro-7-methylthieno [3,2-d]pyrimidin-4-yl)-N^3-(1H-pyrrolo[2,3-b]pyridin-5-yl)-1H-1,2,4-triazole-3,5-diamine] gave an IC50 of under 1000 nM.
In the case of Cc1csc2c(-n3nc(Nc4ccc(N5CCC(CN6CCCC6)CC5)nc4)nc3N)nc(Cl)nc12 [compound 33, 1-(2-chloro-7-methylthieno [3,2-d]pyrimidin-4-yl)-N^3-(6-(4-(pyrrolidin-1-ylmethyl)piperidin-1-yl)pyridin-3-yl)-1H-1,2,4-triazole-3,5-diamine], the IC50 is reported as under 1000 nM.
For COc1cc2ncnc(-n3nc(Nc4ccc(N5CCC(CN6CCCC6)CC5)nc4)nc3N)c2cc1OC [compound 34], the IC50 was under 1000 nM.
In the case of Cc1csc2c(-n3nc(Nc4ccc(N5CCC(N6CCCCCC6)CC5)nc4)nc3N)nc(Cl)nc12 [compound 35, 1-(2-chloro-7-methylthieno [3,2-d]pyrimidin-4-yl)-N^3-(6-(4-(azepan-1-yl)piperidin-1-yl)pyridin-3-yl)-1H-1,2,4-triazole-3,5-diamine], the IC50 is reported as under 1000 nM.
CCN(CC)CC1CCCN1c1ccc(Nc2nc(N)n(-c3nc(Cl)nc4c(C)csc34)n2)cn1 (centres unmarked) [compound 38, 1-(2-chloro-7-methylthieno [3,2-d]pyrimidin-4-yl)-N^3-(6-(2-diethylamino-methyl-pyrrolidin-1-yl)pyridin-3-yl)-1H-1,2,4-triazole-3,5-diamine] showed an IC50 of under 1000 nM.
CCN(CC)CC1CCCN1c1ccc(Nc2nc(N)n(-c3ncnc4cc(OC)c(OC)cc34)n2)cn1 (centres unmarked) [compound 39, 1-(6,7-dimethoxy-quinazoline-4-yl)-N^3-(6-(2-diethyl-aminomethyl-pyrrolidin-1-yl)pyridin-3-yl)-1H-1,2,4-triazole-3,5-diamine] was tested, and the IC50 was under 1000 nM.
For COc1cc2ncnc(-n3nc(Nc4ccc5sc(C(=O)N6CCN(CCN(C)C)CC6)cc5c4)nc3N)c2cc1OC [compound 40, 1-(6,7-dimethoxy-quinazoline-4-yl)-N^3-(2-(1-(4-(2-(dimethyl-amino)ethyl)piperazin-1-yl)oxomethyl)benzo[b]thio-phen-5-yl)-1H-1,2,4-triazole-3,5-diamine], the IC50 was 1000 to 10000 nM.
With Cc1cc(Nc2nc(N)n(-c3nc(Cl)nc4c(C)csc34)n2)cnc1N1CCC(N2CCCC2)CC1 [compound 41, 1-(2-chloro-7-methylthieno [3,2-d]pyrimidin-4-yl)-N^3-(6-(4-(pyrrolidin-1-yl)piperidin-1-yl)-5-methylpyridin-3-yl)-1H-1,2,4-triazole-3,5-diamine] the IC50 was under 1000 nM.
COc1cc2ncnc(-n3nc(Nc4cnc(N5CCC(N6CCCC6)CC5)c(C)c4)nc3N)c2cc1OC [compound 42, 1-(6,7-dimethoxy-quinazoline-4-yl)-N^3-(6-(4-(pyrrolidin-1-yl)piperidin-1-yl)-5-methylpyridin-3-yl)-1H-1,2,4-triazole-3,5-diamine] gave an IC50 of under 1000 nM.
Cc1cc(Nc2nc(N)n(-c3nc4ccccc4c4ccccc34)n2)cnc1N1CCC(N2CCCC2)CC1 [compound 43, 1-(phenanthridin-6-yl)-N^3-(6-(4-(pyrrolidin-1-yl)piperidin-1-yl)-5-methylpyridin-3-yl)-1H-1,2,4-triazole-3,5-diamine] gave an IC50 of under 1000 nM.
For CCN(CC)C1CCN(c2ccc(Nc3nc(N)n(-c4nc(Cl)nc5c(C)csc45)n3)cn2)C1 (centres unmarked) [compound 44, 1-(2-chloro-7-methylthieno [3,2-d]pyrimidin-4-yl)-N^3-(6-(3-diethylamino-pyrrolidin-1-yl)pyridin-3-yl)-1H-1,2,4-triazole-3,5-diamine], the IC50 was under 1000 nM.
